In publication PMC9322122, “Development of (4-Phenylamino)quinazoline Alkylthiourea Derivatives as Novel NF-κB Inhibitors” (Pharmaceuticals, 2022):

How the values were obtained:
[1] = system: NF-κB; assay: NF-κB luciferase reporter assay; format: cell-based; details: Homo sapiens, NF-κB-luciferase-transfected HEK293 cells, TNFα 50 ng/mL; for inhibition at 10 µM: mean ± SEM, n = 3, read-out: NF-κB Luciferase Activity Inh %
Description: NF-κB Luciferase Reporter Vector was purchased from Signosis (Santa Clara, CA, USA) and transfected into HEK-293 cells using FuGENE HD (Promega, Fitchburg, MA, USA) following the manufacturer’s protocol. The transfected cells were incubated in serum-free DMEM for 16 h and then treated with DMSO or indicated compounds. After 3 h, cells were treated with or without 50 ng/mL of Recombinant Human TNFα Protein (R&D systems, Minneapolis, MN, USA) for another 3 h. The protein lysates were analyzed using Steady-Glo® Luciferase Assay System (Promega, Fitchburg, MA, USA) and TECAN Infinite 200 pro (Männedorf, Switzerland).

[2] = Cell viability (WST-1), HEK293; format: cell-based; details: human, HEK293 cells, mean ± SEM, n = 3
Description: (§1) Cells were incubated with the WST-1 reagent (Thermo Fisher Scientific, Waltham, MA, USA) at 37 °C for 2 h. The cell viability was determined by spectrophotometer at 450 nm.

[3] = Cell viability (WST-1), A549; format: cell-based; details: human, A549 cells, mean ± SEM, n = 3
Description: as §1

[4] = molecular target: Recombinant EGFR kinase (Homo sapiens, UniProt P00533); assay: Recombinant EGFR kinase activity; format: biochemical; details: read-out: Recombinant EGFR Kinase Activity (%inh at 150 nM)
[5] = system: TNFα production; assay: TNFα production in LPS-activated dTHP-1 cells (ELISA); format: cell-based; details: Homo sapiens; for inhibition at 7.5 µM / inhibition at 15 µM: LPS 100 ng/mL for 24 h, dTHP-1 cells; for inhibition at 7.5 µM: read-out: TNFα Production Inh % (7.5 μM); for inhibition at 15 µM: read-out: TNFα Production Inh % (15 μM); for IC50: LPS-activated dTHP-1 cells, 24 h
Description: (§2) The HEK-293 (ATCC Cat# CRL-1573, RRID:CVCL_0045) and human monocytic THP−1 cells (ATCC Cat# TIB-202, RRID:CVCL_0006) were, respectively, cultured in DMEM and RPMI 1640 media supplemented with 10% fetal bovine serum, 2 mM L-glutamine, and 1× Antibiotic-Antimycotic at 37 °C in a humidified incubator with 5% CO2. THP−1 cells were differentiated by 100 nM phorbol-12-myristate-13-acetate (PMA) for 4 h and then rested for 44 h as dTHP−1 cells.
(§3) The dTHP−1 cells were treated with indicated compounds for 3 h and then activated with or without 100 ng/mL lipopolysaccharide (LPS; E. coli 0111:B4) for another 24 h. The levels of human IL-6 and TNFα in supernatants were measured by DuoSet® ELISA Development System (R&D systems, Minneapolis, MN, USA) according to the manufacturer’s protocol.

[6] = system: IL-6 production; assay: IL-6 production in LPS-activated dTHP-1 cells (ELISA); format: cell-based, human; details: for inhibition at 7.5 µM / inhibition at 15 µM / IC50: Homo sapiens; for inhibition at 7.5 µM: read-out: IL-6 Production Inh % (7.5 μM); for inhibition at 15 µM: read-out: IL-6 Production Inh % (15 μM); for IC50: LPS-activated dTHP-1 cells, 24 h
Description: as §2, §3

[7] = system: dTHP−1 cells; assay: Cell viability of dTHP-1 cells with or without LPS; format: cell-based, human; details: in % (unit assumed); for Cell viability of dTHP-1 cells, 5 μM, LPS / Cell viability of dTHP-1 cells, 5 μM, without LPS: 5 μM (so in the source); for Cell viability of dTHP-1 cells, 5 μM, without LPS / Cell viability of dTHP-1 cells, 7.5 μM, without LPS: no LPS
Description: as §2, §1, §3

[8] = 7.5 μM, LPS 100 ng/mL for 24 h, dTHP-1 cells
[9] = LPS 100 ng/mL for 24 h, dTHP-1 cells

Chain of Recombinant EGFR kinase (P00533 25-1210): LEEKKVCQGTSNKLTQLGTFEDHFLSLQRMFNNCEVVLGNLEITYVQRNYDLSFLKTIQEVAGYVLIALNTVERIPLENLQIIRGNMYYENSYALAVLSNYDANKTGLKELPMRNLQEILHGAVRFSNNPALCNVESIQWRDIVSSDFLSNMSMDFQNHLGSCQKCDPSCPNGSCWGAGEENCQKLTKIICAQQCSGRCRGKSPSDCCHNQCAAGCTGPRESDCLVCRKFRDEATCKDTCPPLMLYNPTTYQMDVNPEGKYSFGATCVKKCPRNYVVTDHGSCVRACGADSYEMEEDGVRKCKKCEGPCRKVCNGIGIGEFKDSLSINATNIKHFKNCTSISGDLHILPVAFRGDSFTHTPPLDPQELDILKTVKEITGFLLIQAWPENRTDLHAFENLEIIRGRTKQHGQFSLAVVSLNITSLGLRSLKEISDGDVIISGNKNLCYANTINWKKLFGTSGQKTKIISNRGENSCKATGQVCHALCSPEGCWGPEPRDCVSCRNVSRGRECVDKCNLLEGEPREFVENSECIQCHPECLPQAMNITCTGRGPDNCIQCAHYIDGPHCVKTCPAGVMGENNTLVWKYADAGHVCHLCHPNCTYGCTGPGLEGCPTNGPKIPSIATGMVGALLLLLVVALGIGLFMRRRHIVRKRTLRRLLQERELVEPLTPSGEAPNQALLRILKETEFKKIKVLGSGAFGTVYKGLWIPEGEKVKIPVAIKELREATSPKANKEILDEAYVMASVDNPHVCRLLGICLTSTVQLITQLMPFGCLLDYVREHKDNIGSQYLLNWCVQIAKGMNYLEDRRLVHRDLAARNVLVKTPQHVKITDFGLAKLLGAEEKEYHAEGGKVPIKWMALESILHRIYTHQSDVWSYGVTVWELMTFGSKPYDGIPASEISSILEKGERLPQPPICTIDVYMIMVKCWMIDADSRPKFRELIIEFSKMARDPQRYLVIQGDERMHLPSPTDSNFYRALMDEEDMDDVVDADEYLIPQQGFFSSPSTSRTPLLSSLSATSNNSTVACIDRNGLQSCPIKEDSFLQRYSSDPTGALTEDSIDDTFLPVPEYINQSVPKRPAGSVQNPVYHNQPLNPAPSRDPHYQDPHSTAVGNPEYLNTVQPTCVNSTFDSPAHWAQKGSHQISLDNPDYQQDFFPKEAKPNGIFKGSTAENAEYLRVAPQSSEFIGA

| IC50 [1] [µM] | inhibition at 0.15 µM [4] [%] | melting point [°C] | IC50 [5] [µM] | IC50 [6] [µM] | Compound | inhibition at 10 µM [1] [%] | viability at 10 µM [2] [%] | viability at 10 µM [3] [%] | inhibition at 7.5 µM [5] [%] | inhibition at 15 µM [5] [%] | inhibition at 7.5 µM [6, 8] [%] | inhibition at 15 µM [6, 9] [%] | Cell viability of dTHP-1 cells, 5 μM, LPS ([7]; LPS 100 ng/mL for 24 h) | Cell viability of dTHP-1 cells, 5 μM, without LPS [7] | Cell viability of dTHP-1 cells, 7.5 μM, LPS ([7]; 7.5 μM, LPS 100 ng/mL for 24 h) | Cell viability of dTHP-1 cells, 7.5 μM, without LPS ([7]; 7.5 μM) | IL-6 Production Inh % (7.5 μM) [6, 8] |
| --- | --- | --- | --- | --- | --- | --- | --- | --- | --- | --- | --- | --- | --- | --- | --- | --- | --- |
| > 10 | 42 | 203 to 205 |  |  | CC(C)(C)c1ccc(CNC(=S)Nc2ccc3ncnc(Nc4cccc(Cl)c4)c3c2)cc1 [Compound 1, 1-(4-(tert-Butyl)benzyl)-3-(4-((3-chlorophenyl)amino)quinazolin-6-yl)thiourea] | 41.6 ± 3.8 | 73.9 ± 4.6 | 91.1 ± 3.4 |  |  |  |  |  |  |  |  |  |
| 1.7 | 67 | 165 to 167 | 10.2 ± 0.27 | 1.2 ± 0.12 | COc1ccc(CNC(=S)Nc2ccc3ncnc(Nc4cccc(Cl)c4)c3c2)cc1 [Compound 2, 1-(4-((3-Chlorophenyl)amino)quinazolin-6-yl)-3-(4-methoxybenzyl)thiourea] | 94.6 ± 0.1 | 101 ± 7.4 | 95.4 ± 1.9 | 32.5 ± 8.5 | 60.4 ± 1.8 | 76.2 ± 13.3 | 87.5 ± 6.8 | 78.8 ± 5.3 | 94.2 ± 1.6 | 57.5 ± 1.4 | 99.2 ± 1.5 |  |
| > 10 | 70 | 165 to 167 |  |  | FC(F)(F)c1ccc(CNC(=S)Nc2ccc3ncnc(Nc4cccc(Cl)c4)c3c2)cc1 [Compound 3, 1-(4-((3-Chlorophenyl)amino)quinazolin-6-yl)-3-(4-(trifluoromethyl)benzyl)thiourea] | 46.5 ± 4.9 | 68.9 ± 6.4 | 73.4 ± 4.3 |  |  |  |  |  |  |  |  |  |
| > 10 | 56 | 166 to 168 |  |  | S=C(NCc1ccc(Cl)cc1)Nc1ccc2ncnc(Nc3cccc(Cl)c3)c2c1 [Compound 4, 1-(4-Chlorobenzyl)-3-(4-((3-chlorophenyl)amino)quinazolin-6-yl)thiourea] | 31.9 ± 9.6 | 95.9 ± 3.4 | 98.1 ± 1.9 |  |  |  |  |  |  |  |  |  |
| 1.9 | 72 | 164 to 166 |  |  | Fc1ccc(CNC(=S)Nc2ccc3ncnc(Nc4cccc(Cl)c4)c3c2)cc1 [Compound 5, 1-(4-((3-Chlorophenyl)amino)quinazolin-6-yl)-3-(4-fluorobenzyl)thiourea] | 79.1 ± 0.8 | 67 ± 6.1 | 65.3 ± 1.1 |  |  |  |  |  |  |  |  |  |
| 1.6 | 68 | 178 to 180 | 4.4 ± 0.85 | 0.36 ± 0.07 | Fc1ccc(CNC(=S)Nc2ccc3ncnc(Nc4cccc(Cl)c4)c3c2)c(F)c1 [Compound 6, 1-(4-((3-chlorophenyl)amino)quinazolin-6-yl)-3-(2,4-difluorobenzyl)thiourea] | 78.4 ± 2.7 | 85.5 ± 6.4 | 75.5 ± 2.9 | 61.1 ± 5.8 | 76.6 ± 3.8 | 97.6 ± 0.6 | 98.2 ± 1.3 | 5.0 ± 0.35 | 43.6 ± 9.0 |  | 62.0 ± 14.5 | almost complete blockage |
| > 10 | 48 | 204 to 206 | 11.9 ± 0.7 | 1.2 ± 0.16 | COc1ccc(CNC(=S)Nc2ccc3ncnc(Nc4cccc(Cl)c4)c3c2)c(OC)c1 [Compound 7, 1-(4-((3-Chlorophenyl)amino)quinazolin-6-yl)-3-(2,4-dimethoxybenzyl)thiourea] | 27.1 ± 3.4 | 85.9 ± 2.5 | 99.5 ± 1.4 | 37 ± 4.9 | 50.3 ± 5.5 | 71 ± 3.4 | 84 ± 0.82 | 91.9 ± 4.2 | 96.8 ± 4.2 |  | 94.4 ± 0.61 |  |
| 2.3 | 40 | 183 to 185 |  |  | COc1cccc(CNC(=S)Nc2ccc3ncnc(Nc4cccc(Cl)c4)c3c2)c1 [Compound 8, 1-(4-((3-Chlorophenyl)amino)quinazolin-6-yl)-3-(3-methoxybenzyl)thiourea] | 76.1 ± 2.6 | 100 ± 6.9 | 101 ± 2.3 |  |  |  |  |  |  |  |  |  |
| 2.8 | 69.8 | 178.8 to 180.7 |  |  | S=C(NCc1cccs1)Nc1ccc2ncnc(Nc3cccc(Cl)c3)c2c1 [Compound 9, 1-(4-((3-Chlorophenyl)amino)quinazolin-6-yl)-3-(thiophen-2-yl-methyl)thiourea] | 98 ± 0.4 | 13.9 ± 0.7 | 50.7 ± 2.4 |  |  |  |  |  |  |  |  |  |
| 4.3 | 79.1 | 195.6 to 198.2 |  |  | S=C(NCc1ccco1)Nc1ccc2ncnc(Nc3cccc(Cl)c3)c2c1 [Compound 10, 1-(4-((3-Chlorophenyl)amino)quinazolin-6-yl)-3-(furan-2-ylmethyl)thiourea] | 76.1 ± 2.3 | 71.7 ± 3.1 | 74.4 ± 11.7 |  |  |  |  |  |  |  |  |  |
| > 10 | 66 | 205.6 to 207.9 |  |  | S=C(NCc1cccnc1)Nc1ccc2ncnc(Nc3cccc(Cl)c3)c2c1 [Compound 11, 1-(4-((3-Chlorophenyl)amino)quinazolin-6-yl)-3-(pyridin-3-ylmethyl)thiourea] | 44.7 ± 5.8 | 62.8 ± 4 | 98.9 ± 4.1 |  |  |  |  |  |  |  |  |  |
| > 10 | 34.6 | 225.5 to 227 |  |  | O=C(NCc1cccc(Cl)c1)Nc1ccc2ncnc(Nc3cccc(Cl)c3)c2c1 [Compound 12, 1-(3-Chlorobenzyl)-3-(4-((3-chlorophenyl)amino)quinazolin-6-yl)urea] | 42.7 ± 9.3 | 114 ± 3.2 | 101 ± 4.2 |  |  |  |  |  |  |  |  |  |
| 8.1 | 23.3 | 210.8 to 212 |  |  | O=C(NCc1cccc(F)c1)Nc1ccc2ncnc(Nc3cccc(Cl)c3)c2c1 [Compound 13, 1-(4-((3-Chlorophenyl)amino)quinazolin-6-yl)-3-(3-fluorobenzyl)urea] | 53.3 ± 10 | 95.5 ± 6.1 | 104 ± 5 |  |  |  |  |  |  |  |  |  |
| 8 | 44.5 | 222.4 to 228.8 |  |  | C#Cc1cccc(Nc2ncnc3ccc(NC(=O)NCc4cccc(Cl)c4)cc23)c1 [Compound 14, 1-(3-Chlorobenzyl)-3-(4-((3-ethynylphenyl)amino)quinazolin-6-yl)urea] | 58.5 ± 0.9 | 110 ± 2.7 | 98.6 ± 3 |  |  |  |  |  |  |  |  |  |
| > 10 | 26 | 252.4 to 254 |  |  | O=C(NC(=O)c1ccccc1)Nc1ccc2ncnc(Nc3cccc(Cl)c3)c2c1 [Compound 15, N-((4-((3-Chlorophenyl)amino)quinazolin-6-yl)carbamoyl)benzamide] | 48.3 ± 9.3 | 114 ± 2.6 | 100 ± 4.5 |  |  |  |  |  |  |  |  |  |
| 7 | 48.9 | 186.1 to 188.5 |  |  | O=C(NC(=S)Nc1ccc2ncnc(Nc3cccc(Cl)c3)c2c1)c1ccccc1 [Compound 16, N-((4-((3-Chlorophenyl)amino)quinazolin-6-yl)carbamothioyl)benzamide] | 58.2 ± 5.2 | 102 ± 4 | 102 ± 1.6 |  |  |  |  |  |  |  |  |  |
